{
  "source": "patent US9227973B2",
  "about": "“Pyridine CGRP receptor antagonists” (Merck Sharp & Dohme Corp., priority 2012, dated 2016)",
  "key": {"[1]": {"target": "T1, recombinant human CL receptor/RAMP1 (CGRP receptor) (Homo sapiens (Human), UniProt O60894+Q16602)", "T1 sequence (Q16602 23-461)": "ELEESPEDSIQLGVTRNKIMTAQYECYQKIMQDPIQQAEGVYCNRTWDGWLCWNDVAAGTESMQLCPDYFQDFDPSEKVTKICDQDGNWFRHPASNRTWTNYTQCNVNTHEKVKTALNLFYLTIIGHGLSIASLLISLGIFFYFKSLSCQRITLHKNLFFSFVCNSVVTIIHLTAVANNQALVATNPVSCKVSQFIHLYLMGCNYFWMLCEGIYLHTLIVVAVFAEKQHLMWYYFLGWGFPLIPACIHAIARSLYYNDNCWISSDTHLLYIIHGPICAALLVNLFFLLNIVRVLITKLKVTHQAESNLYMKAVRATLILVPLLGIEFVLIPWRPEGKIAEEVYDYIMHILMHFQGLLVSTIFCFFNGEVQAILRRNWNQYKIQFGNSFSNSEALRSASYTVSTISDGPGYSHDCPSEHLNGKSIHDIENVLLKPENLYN", "T1 sequence (O60894 27-148)": "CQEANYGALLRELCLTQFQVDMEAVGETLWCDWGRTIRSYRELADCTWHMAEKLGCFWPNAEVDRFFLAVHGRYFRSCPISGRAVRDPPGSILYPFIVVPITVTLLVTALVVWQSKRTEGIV", "experiment": "Recombinant receptor functional assay (Assay B), cAMP HTRF", "assay_type": "cell-based", "details": "Assay B: HEK 293 cells, 2,000 cells/well, human α-CGRP 1.2 nM, cAMP inflection point", "experimental": "RECOMBINANT RECEPTOR: Human CL receptor (Genbank accession number L76380) was subcloned into the expression vector pIREShyg2 (BD Biosciences Clontech) as a 5′NheI and 3′ PmeI fragment. Human RAMP1 (Genbank accession number AJ001014) was subcloned into the expression vector pIRESpuro2 (BD Biosciences Clontech) as a 5′NheI and 3′NotI fragment. HEK 293 cells (human embryonic kidney cells; ATCC #CRL-1573) were cultured in DMEM with 4.5 g/L glucose, 1 mM sodium pyruvate and 2 mM glutamine supplemented with 10% fetal bovine serum (FBS), 100 units/mL penicillin and […] streptomycin, and maintained at 37° C. and 95% humidity. Cells were subcultured by treatment with 0.25% trypsin with 0.1% EDTA in HBSS. Stable cell line generation was accomplished by co-transfecting 10 μg of DNA with 30 μg Lipofectamine 2000 (Invitrogen) in 75 cm^2 flasks. CL receptor and RAMP1 expression constructs were co-transfected in equal amounts. Twenty-four hours after transfection the cells were diluted and selective medium (growth medium+300 μg/mL hygromycin and 1 μg/mL puromycin) was added the following day. A clonal cell line was generated by single cell deposition utilizing a FACS Vantage SE (Becton Dickinson). Growth medium was adjusted to 150 μg/mL hygromycin and 0.5 μg/mL puromycin for cell propagation.\nRECOMBINANT RECEPTOR FUNCTIONAL ASSAY (Assay B): Cells were resuspended in DMEM/F12 (Hyclone) supplemented with 1 g/L BSA and 300 μM isobutyl-methylxanthine. Cells were then plated in a 384-well plate (Proxiplate Plus 384; 509052761; Perkin-Elmer) at a density of 2,000 cells/well and incubated with antagonist for 30 min at 37° C. Human α-CGRP was then added to the cells at a final concentration of 1.2 nM and incubated an additional 20 min at 37° C. Following agonist stimulation, the cells were processed for cAMP determination using the two-step procedure according to the manufacturer's recommended protocol (HTRF cAMP dynamic 2 assay kit; 62AM4PEC; Cisbio). Raw data were transformed into concentration of cAMP using a standard curve then dose response curves were plotted and inflection point (IP) values were determined"}, "[2]": {"target": "T1, recombinant human CL receptor/RAMP1 (CGRP receptor)", "experiment": "Recombinant receptor functional assay (Assay C), cAMP HTRF", "assay_type": "cell-based", "details": "Assay C: HEK 293 cells, 3,500 cells/well, human α-CGRP 1 nM, cAMP inflection point", "experimental": "Human RAMP1 (Genbank accession number AJ001014) was subcloned into the expression vector pIRESpuro2 (BD Biosciences Clontech) as a 5′NheI and 3′NotI fragment. […] Cells were subcultured by treatment with 0.25% trypsin with 0.1% EDTA in HBSS. Stable cell line generation was accomplished by co-transfecting 10 μg of DNA with 30 μg Lipofectamine 2000 (Invitrogen) in 75 cm^2 flasks. CL receptor and RAMP1 expression constructs were co-transfected in equal amounts. Twenty-four hours after transfection the cells were diluted and selective medium (growth medium+300 μg/mL hygromycin and 1 μg/mL puromycin) was added the following day. A clonal cell line was generated by single cell deposition utilizing a FACS Vantage SE (Becton Dickinson). Growth medium was adjusted to 150 μg/mL hygromycin and 0.5 μg/mL puromycin for cell propagation."}},
  "data": [
    {"smiles": "O=C(NC1CC(c2ccccc2)Cc2cccnc21)c1cnc2c(c1)C[C@@]1(C2)C(=O)Nc2ncccc21", "note": "(single isomer, unassigned; isomer a) [5 isomer A]", "values": [
      {"measurement": "IC50", "setting": "[1]", "result": 22, "unit": "nM"}
    ]},
    {"smiles": "O=C(NC1CC(c2ccccc2)Cc2cccnc21)c1cnc2c(c1)C[C@@]1(C2)C(=O)Nc2ncccc21", "note": "(single isomer, unassigned; isomer a) [6 isomer A]", "values": [
      {"measurement": "IC50", "setting": "[1]", "result": 78, "unit": "nM"}
    ]},
    {"smiles": "O=C(NC1COC(c2ccccc2)Cc2cccnc21)c1cnc2c(c1)C[C@@]1(C2)C(=O)Nc2ncccc21", "note": "(single isomer, unassigned; isomer a) [9 isomer A]", "values": [
      {"measurement": "IC50", "setting": "[2]", "result": 1900, "unit": "nM"}
    ]},
    {"smiles": "O=C(NC1CC(c2ccccc2)Cc2cccnc21)c1cnc2c(c1)C[C@]1(C2)C(=O)Nc2ncccc21", "note": "(single isomer, unassigned; isomer b) [5 isomer B]", "values": [
      {"measurement": "IC50", "setting": "[1]", "result": 4600, "unit": "nM"}
    ]},
    {"smiles": "O=C(NC1CC(c2ccccc2)Cc2cccnc21)c1cnc2c(c1)C[C@]1(C2)C(=O)Nc2ncccc21", "note": "(single isomer, unassigned; isomer b) [6 isomer B]", "values": [
      {"measurement": "IC50", "setting": "[1]", "result": 150, "unit": "nM"}
    ]},
    {"smiles": "O=C(NC1COC(c2ccccc2)Cc2cccnc21)c1cnc2c(c1)C[C@@]1(C2)C(=O)Nc2ncccc21", "note": "(single isomer, unassigned; isomer b) [9 isomer B]", "values": [
      {"measurement": "IC50", "setting": "[2]", "result": 1100, "unit": "nM"}
    ]},
    {"smiles": "O=C(NC1COC(c2ccccc2)Cc2cccnc21)c1cnc2c(c1)C[C@@]1(C2)C(=O)Nc2ncccc21", "note": "(single isomer, unassigned; isomer c) [9 isomer C]", "values": [
      {"measurement": "IC50", "setting": "[2]", "result": 1100, "unit": "nM"}
    ]},
    {"smiles": "N[C@@H]1c2cccnc2[C@H](NC(=O)c2cnc3c(c2)C[C@@]2(C3)C(=O)Nc3ncccc32)CC[C@H]1c1cccc(F)c1F", "note": "[Example 1, (6S)—N-[(5S,6S,9R)-5-Amino-6-(2,3-difluorophenyl)-6,7,8,9-tetrahydro-5H-cyclohepta[b]pyridin-9-yl]-2′-oxo-1′,2′,5,7-tetrahydrospiro[cyclopenta[b]pyridine-6,3′-pyrrolo[2,3-b]pyridine]-3-carboxamide]", "values": [
      {"measurement": "IC50", "setting": "[1]", "result": 0.93, "unit": "nM"}
    ]},
    {"smiles": "N[C@@H]1c2cccnc2[C@@H](NC(=O)c2cnc3c(c2)C[C@@]2(C3)C(=O)Nc3ncccc32)CC[C@H]1c1cccc(F)c1F", "note": "[Example 2, (6S)—N-[(5S,6S,9S)-5-Amino-6-(2,3-difluorophenyl)-6,7,8,9-tetrahydro-5H-cyclohepta[b]pyridin-9-yl]-2′-oxo-1′,2′,5,7-tetrahydrospiro[cyclopenta[b]pyridine-6,3′-pyrrolo[2,3-b]pyridine]-3-carboxamide]", "values": [
      {"measurement": "IC50", "setting": "[1]", "result": 290, "unit": "nM"}
    ]},
    {"smiles": "N[C@H]1c2cccnc2[C@H](NC(=O)c2cnc3c(c2)C[C@@]2(C3)C(=O)Nc3ncccc32)CC[C@H]1c1cccc(F)c1F", "note": "[Example 3, (6S)—N-[(5R,6S,9R)-5-Amino-6-(2,3-difluorophenyl)-6,7,8,9-tetrahydro-5H-cyclohepta[b]pyridin-9-yl]-2′-oxo-1′,2′,5,7-tetrahydrospiro[cyclopenta[b]pyridine-6,3′-pyrrolo[2,3-b]pyridine]-3-carboxamide]", "values": [
      {"measurement": "IC50", "setting": "[1]", "result": 6.3, "unit": "nM"}
    ]},
    {"smiles": "N[C@H]1c2cccnc2[C@@H](NC(=O)c2cnc3c(c2)C[C@@]2(C3)C(=O)Nc3ncccc32)CC[C@H]1c1cccc(F)c1F", "note": "[Example 4, (6S)—N-[(5R,6S,9S)-5-Amino-6-(2,3-difluorophenyl)-6,7,8,9-tetrahydro-5H-cyclohepta[b]pyridin-9-yl]-2′-oxo-1′,2′,5,7-tetrahydrospiro[cyclopenta[b]pyridine-6,3′-pyrrolo[2,3-b]pyridine]-3-carboxamide]", "values": [
      {"measurement": "IC50", "setting": "[1]", "result": 65, "unit": "nM"}
    ]},
    {"smiles": "O=C(N[C@H]1CC[C@H](c2cccc(F)c2F)Cc2cccnc21)c1cnc2c(c1)C[C@@]1(C2)C(=O)Nc2ncccc21", "note": "[Example 7A, (S)—N-((6S,9S)-6-(2,3-difluorophenyl)-6,7,8,9-tetrahydro-5H-cyclohepta[b]pyridin-9-yl)-2′-oxo-1′,2′,5,7-tetrahydrospiro[cyclopenta[b]pyridine-6,3′-pyrrolo[2,3-b]pyridine]-3-carboxamide]", "values": [
      {"measurement": "IC50", "setting": "[1]", "result": 380, "unit": "nM"}
    ]},
    {"smiles": "O=C(N[C@@H]1CC[C@@H](c2cccc(F)c2F)Cc2cccnc21)c1cnc2c(c1)C[C@@]1(C2)C(=O)Nc2ncccc21", "note": "[Example 7B, (S)—N-((6R,9R)-6-(2,3-difluorophenyl)-6,7,8,9-tetrahydro-5H-cyclohepta[b]pyridin-9-yl)-2′-oxo-1′,2′,5,7-tetrahydrospiro[cyclopenta[b]pyridine-6,3′-pyrrolo[2,3-b]pyridine]-3-carboxamide]", "values": [
      {"measurement": "IC50", "setting": "[1]", "result": 4.5, "unit": "nM"}
    ]}
  ]
}
